Test results taken from patent publication US9265787B2, “Combined inhibition of the vitamin D receptor and DNA replication in the treatment of cancer” (Institute for Cancer Research, priority 2011, dated 2016).

Assays:
Assay type in all cases: cell-based
BXPC3 cells [1] = assay: Clonogenic assay with VDR antagonist TEI-9647 and gemcitabine
Method: Note sensitization at 2 μM of TEI-9647. The average of 3 independent experiments is shown.
(§1) TEI-9647 alone killed cells, consistent with reduced clonogenic survival by VDR siRNA alone. Clonogenic assays were performed using several different doses of the inhibitor compound to compare clonogenic survival to assays described above using VDR siRNAs and shRNAs. The clonogenic assays were performed as described above. The TEI-9647 compound was added prior to gemcitabine addition, consistent with the timing of the siRNA treatments described above. Cells were treated with inhibitor for 48 hours followed by gemcitabine treatment for 48 hours and allowed to form colonies for 10-12 days. Survival was then quantified by staining and destaining of subsequent colonies with crystal violet and reading the resultant destain at wavelength 595 nm.

Panc1 cells [2] = assay: as above; details: data not shown
Method: as §1

Panc1 cells [3] = assay: Clonogenic survival after siRNA transfection and 18 h gemcitabine; details: VDR siRNA-transfected Panc 1 cells, gemcitabine 18 hours, colonies after eight days
Method: (§2) Clonogenic survival of BXPC3 cells transfected with indicated siRNAs and treated with drug or vehicle. Plk1 siRNA is positive control for killing. […] Panc 1 cells transfected with VDR siRNA are also included.
(§3) Cells were transfected with siRNA, treated with gemcitabine for 18 hours, then seeded. Surviving colonies were quantitated eight days later.

BXPC3 cells [4] = assay: as above; details: VDR siRNA-transfected BXPC3 cells, gemcitabine 18 hours, colonies after eight days
Method: as §2, §3

[5] = tested on: BXPC3 cells stably expressing gfpH2B; assay: Time-lapse microscopy of BXPC3 cells stably expressing gfpH2B (preliminary experiments); details: S phase by FACS
Text: VDR is known to induce transcription of the Cdk inhibitor, p21, and this is one of the reasons used to explain the anti-proliferative activity of vitamin D. As p21 is also activated by DNA damage, it is possible that VDR contributes to the cell cycle checkpoint arrest induced by gemcitabine. This will be directly tested by time-lapse microscopy of synchronized cells after depletion of VDR and treatment with gemcitabine.

Panc1 cells [6] = assay: Immunofluorescence staining for DNA damage response proteins; details: gemcitabine-treated compared to vehicle treated cells
Text: Immunofluorescence staining for DNA damage response proteins, TAO1, 53BP1, and γ-H2AX of gemcitabine treated Panc1 cells transfected with control or VDR siRNA.

Panc1 cells [7] = assay: Effect of the sublethal screening dose of gemcitabine (phospho-H2AX foci, cell cycle arrest); details: sublethal dose (IC20)
BXPC3shVDR cells = assay: Drug survival of BXPC3 cells stably depleted of VDR (rescue experiments)
BXPC3 cells [8] = assay: CellTiter-Glo viability assay with VDR short hairpin RNA and gemcitabine
Panc1 cells [9] = assay: as above
Panc1:gfpH2B cells = assay: Time-lapse videomicroscopy of cell fates with siRNAs/drugs and gemcitabine
Text: FIGS. 5A-5C show time lapse videomicroscopy tracking the fates of Panc1:gfpH2B cells treated with various combinations of siRNAs and drugs.
White arrows show mitotic cells in Chk1 depleted cells. Other rounded cells are apoptotic.
The fate of Panc1:gfpH2B cells treated with various combinations of siRNA and gemcitabine was tracked with time-lapse videomicroscopy (FIG. 5A). […] Cells were transfected with indicated siRNAs, and synchronized at the G1/S boundary. Time-lapse was started upon release from the G1/S block and continued for the next 48 hours. Select frames from the movies (0, 12, 24 and 48 hours) are shown.
A comparison of cells treated with gemcitabine in the presence and absence of UCN01, an inhibitor of the Chk1 DNA damage response kinase was carried out (FIG. 5A).
The percentage of cell death was quantified (FIG. 5C).
The mechanism of chemosensitization by inhibiting VDR was investigated, and it was determined that this mechanism is different from overriding the DNA damage checkpoint pathway through Chk1 inhibition (FIG. 6A). […] Chk1 was depleted by using siRNAs targeted to the Chk1 transcript from the Dharmacon smartPOOL siRNA library. The siRNAs included the sequence […] (SEQ ID NO:8), […] (SEQ ID NO:9), […] (SEQ ID NO:10), and […] (SEQ ID NO:11).
Loss of VDR promotes apoptosis of gemcitabine-treated cells through a different pathway than that which is used after Chk1 inhibition. […]

In the case of `C=C1C[C@H](C[C@@H](C)[C@H]2CC[C@H]3/C(=C/C=C4/C[C@@H](O)C[C@H](O)C4=C)CCC[C@]23C)OC1=O` [TEI-9647], the “sensitization to gemcitabine (clonogenic survival)” value (BXPC3 cells [1]; TEI-9647 added prior to gemcitabine) is reported as “sensitize both BXPC3 and Panc1 cells to gemcitabine”, the “TEI-9647 concentration at which sensitization is noted” value (BXPC3 cells [1]; with gemcitabine, average of 3 independent experiments) is reported as 2 µM and the “effect of TEI-9647 alone on clonogenic survival” value (BXPC3 cells [1]; without gemcitabine) is reported as “killed cells”. The “sensitization to gemcitabine (clonogenic survival)” value (Panc1 cells [2]) was “sensitize both BXPC3 and Panc1 cells to gemcitabine”.

In the case of `Nc1ccn([C@@H]2O[C@H](CO)[C@@H](O)C2(F)F)c(=O)n1` [gemcitabine, Gemcitabine], the “further reduction of survival by gemcitabine” value (Panc1 cells [3]) is reported as over 85%, the “further reduction of survival by gemcitabine” value (BXPC3 cells [4]) is reported as over 85% and the “duration of arrest in interphase after gemcitabine treatment” value [5] is reported as “up to 48 hours”. The “phospho-H2AX and 53BP1 staining in nuclei” value (Panc1 cells [6]) was “increased”, the “DNA damage and cell cycle arrest at the screening dose” value (Panc1 cells [7]) was “sufficient to induce DNA damage” and the “survival of BXPC3shVDR cells carrying the C288G VDR mutant” value (BXPC3shVDR cells; 50 nM, compared to the same cells rescued by wild type VDR) was “killed”.

`CC(=O)O[C@H]1C(=O)[C@@]2(C)[C@H]([C@H](OC(=O)c3ccccc3)[C@]3(O)C[C@H](OC(=O)[C@H](O)[C@@H](NC(=O)c4ccccc4)c4ccccc4)C(C)=C1C3(C)C)[C@]1(OC(C)=O)CO[C@@H]1C[C@@H]2O` [taxol] was tested, and the “effect of VDR status on killing by taxol” value (BXPC3shVDR cells; two concentrations of taxol, BXPC3 parental, shVDR and rescued cells) was “did not affect killing”.

In the case of “VDR shRNA: VDR short hairpin RNA (clone ID TRCN000019504), sequence CGAAGUGUUUGGCAAUGAGAU (SEQ ID NO: 7) (listed as Homo sapiens)”, the “sensitization to killing by gemcitabine (viability)” value (BXPC3 cells [8]) is reported as “sensitized both cell lines to killing by gemcitabine” and the “sensitization to killing by gemcitabine (viability)” value (Panc1 cells [9]) is reported as “sensitized both cell lines to killing by gemcitabine”.

For `CN[C@@H]1C[C@H]2O[C@@](C)([C@@H]1OC)n1c3ccccc3c3c4c(c5c6ccccc6n2c5c31)C(=O)N[C@@H]4O` [UCN01], the “fate of gemcitabine-treated cells (mitotic entry, phase of death)” value (Panc1:gfpH2B cells; 48 hour time-lapse after release from G1/S block) was “promoted cells to first enter mitosis (arrows) which then caused cell death” and the “cell number at 48 hour versus 0 hour” value (Panc1:gfpH2B cells; gemcitabine-treated cells with UCN01, phase contrast images) was “reduced cell number”.
